# In patent US5451600A, “Substituted tetrahydrobenzopyrrolylfuranoic acid derivatives as phospholipase A2 inhibitors” (Hoffmann-La Roche Inc., priority 1994, dated 1995):
# pIC50: −log10 of the molar value.
# Columns and labels:
# [1] = biological target: T1, PLA2 activity in human synovial fluid (HSF) (Homo sapiens, UniProt P14555); test: Phospholipase A2 (PLA2) enzymatic assay - % Inhibition of HSF-PLA2; type: biochemical; details: for inhibition at 5 µM: read-out: % Inhib. of HSF-PLA2 at 5 μM
# T1 construct: Synovial fluid was obtained from patients with rheumatoid arthritis; from tissue; host or cells: cell-depleted synovial fluid of patients with rheumatoid arthritis
# T1 sequence (P14555 21-144): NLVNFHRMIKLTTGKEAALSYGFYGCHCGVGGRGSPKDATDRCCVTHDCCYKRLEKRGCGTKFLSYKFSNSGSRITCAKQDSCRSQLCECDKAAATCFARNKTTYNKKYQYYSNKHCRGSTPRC
# From the text: 1, Phospholipase A2 (PLA2) enzymatic assay - % Inhibition of HSF-PLA2
# PLA2 assay procedure described by Hope et al., Inflammation 14:543-559 (1.990) was utilized to measure the inhibitory activity of the invention (inhibitor) against PLA2 activity in human synovial fluid (HSF). Synovial fluid was obtained from patients with rheumatoid arthritis. The assay procedure measured the release of [1-^14 C]oleic acid from the sn-2 position of phospholipids in autoclaved Escherichia coli previously grown in media containing [1-^14 C]oleic acid. The standard assay reaction conditions included 1×10^9 Escherichia coil (10,000 dpm ^14 C), 0.15% (v/v) cell-depleted HSF, (which was equivalent to 66 μg protein/mL) 2 mM CaCl2, 150 mM NaCl, 50 mM sodium (N-[2-hydroxyethyl] piperazine-N'-[2-ethanesulfonate]) (HEPES) buffer (pH 7.3), 1% dimethyl sulfoxide (DMSO) and various concentrations of inhibitor in a total volume of 0.5 ml. Inhibitors were dissolved in DMSO and added. The reaction was initiated by addition of HSF, incubated for 30 min at 37° C. and then stopped by addition of 2.5 ml of chloroform/methanol (1:1.5, v/v). The total lipids were extracted by the method of Bligh, E. G., and Dyer, W. J, Can. J. Biochem. Physiol. 37:911-917 (1959) by the further addition of 0.5 mL of chloroform and 1 mL of water with mixing. The lipid extract was redissolved in chloroform/methanol (9:1, v/v) containing 10 ug of carrier oleic acid. The oleic acid was separated from phospholipids by thin layer chromatography using gel-impregnated glass fiber sheets (ITLC type SG sheets). The sheets were preactivated by heating at 110° C. for 30 min. The lipid extract was applied to the sheets and chromatographed for 6 minutes, using hexane/acetic acid (100:1, v/v). The positions on the sheet containing oleic acid and phospholipids were visualized by exposure to iodine vapor and located by comparison to standards. The oleic acid and phospholipid zones were cut from the sheets, shaken individually with 2 ml of ethanol/water (80:20, v/v) and 15 ml of Aquasol, then counted for [^14 C] radioactivity (dpm). PLA2 activity, expressed as percent hydrolysis, was calculated from the formula: [formula] and was corrected for nonenzymatic hydrolysis of the substrate. Percent inhibition due to the presence of drug was calculated from the formula: [formula]
# When various concentrations of a Compound of Formula I were tested, the percent inhibition at each concentration was plotted as log concentration (abscissa) versus percent inhibition (ordinate) and the IC50 was determined from this plot.
# cellular PLA2 = test: Inhibition of Cellular Phospholipase A2 (A23187-stimulated macrophages); type: cell-based; details: 5 μM; rat peritoneal macrophages, A-23187 stimulated
# Procedure: II. Inhibition of Cellular Phospholipase A2. - % Inhibition of Cellular PLA2
# Resident macrophages were obtained from rats by peritoneal lavage with phosphate buffered saline minus Ca2^++ and Mg2^++ (PBS). Cells were washed 3 times with PBS and resuspended in Dulbecco's Modified Eagle's Medium (GiBco) containing L-glutamine low D-glucose (1000 mg/L), and sodium pyruvate (110 mg/L), supplemented with 10% fetal calf serum. Cells were counted on a Coulter ZBI cell counter and then resuspended to a concentration of 6×10^6 cells/1.5 ml. The cell suspension (1.5 ml culture dishes (35 mm) and the cells were allowed to adhere to the dishes for 90 minutes at 37° C. Dishes were washed 3 times with PBS to remove non-adherent cells. [^14 C]arachidonic acid ([^14 C]-AA, approximately […], were added to the cells (1 uCi/dish) and allowed to incorporate for 120 minutes. Medium containing unincorporated [^14 C]-AA was removed and the cell layer was again washed 3 times with PBS. Inhibitors were dissolved in dimethylsulfoxide (DMSO) and added directly to the macrophages in Hank's Balanced Salt Solution (GiBco) phosphate-buffered, pH 7.4) to obtain the desired final concentration. Cells were incubated with drug or DMSO for 30 minutes at 37° C. and were then stimulated with calcium-ionophore A-23187 (0.75 uM) for 20 minutes. The extracellular medium was removed and the [^14 C] radioactivity released into this medium from AA metabolism was measured by liquid scintillation spectroscopy. The amounts of LTB4 and PGE2 were measured in the extracellular medium by radio immunoassay with specific antisera. The effects of inhibitor were measured as percent inhibition of A23187- stimulated AA metabolite release (^14 C release, PGE2 and LTB4 production) (control) which were calculated from the formula: [formula] IC50 's were calculated as described in the HSF-PLA2 assay.
# [2] = system: carrageenan-induced paw edema in rats; test: Carrageenan-induced paw edema model of inflammation; type: in vivo; details: 2 hr, rat, read-out: Carrageenan ind. paw edema % Inhib. 2 hr; for inhibition in vivo at 20 mg/kg: 20 mg/Kg ip; for inhibition in vivo at 100 mg/kg: 100 mg/Kg po; for inhibition in vivo at 10 mg/kg: 10 mg/Kg ip
SMILES,inhibition at 5 µM [1] [%],% Inhib. of cellular PLA2 at 5 μM (cellular PLA2) [%],further results
"CCCCCCCCn1c2c(c3cc(/C=C/c4ccc(C(=O)O)o4)ccc31)C(C)(C)CC(C)(C)C2 [Example 46, (E)-5-[2-(1,2,3,4-tetrahydro-2,2,4,4-tetramethyl-9-octyl-9H-dibenzo[b,d]pyrrol-6-yl)ethenyl]-2-furancarboxylic acid]",75,48,
"CCCCCCCCn1c2c(c3cc(/C(C)=C/c4ccc(C(=O)O)o4)ccc31)CCCC2 [Example 47, (E)-5-[2-methyl-2-(1,2,3,4-tetrahydro-9-octyl-9H-dibenzo[b,d]pyrrol-6-yl)ethenyl]-2-furancarboxylic acid]",59,77,inhibition in vivo at 20 mg/kg [2]: 70%; inhibition in vivo at 100 mg/kg [2]: 49%
"CCCCCCCCn1c2c(c3cc(/C(C)=C/c4ccc(C(=O)O)o4)ccc31)CCCC2(C)C [Example 48, (E)-5-[2-methyl-2-(1,2,3,4-tetrahydro-1,1-dimethyl-9-octyl-9H-dibenzo[b,d]-pyrrol-6yl)ethenyl]-2-furancarboxylic acid]",75,62,inhibition in vivo at 10 mg/kg [2]: 58%
"CCCCCCCCn1c2c(c3cc(/C(C)=C/c4ccc(C(=O)O)o4)ccc31)C(C)(C)CC(C)(C)C2 [Example 49, (E)-5-[2-methyl-2-(1,2,3,4-tetrahydro-2,2,4,4-tetramethyl-9-octyl-9H-dibenzo[b,d]pyrrol-6yl)ethenyl]-2-furancarboxylic acid]",83,15,
"CCCCCCCCn1c2c(c3cc(/C=C(\C)c4ccc(C(=O)O)o4)ccc31)CCCC2 [Example 50, (E)-5-[1-methyl-2-(1,2,3,4-tetrahydro-9-octyl-9H-dibenzo[b,d]-pyrrol-6-yl)ethenyl]-2-furancarboxylic acid]",47,79,inhibition in vivo at 20 mg/kg [2]: 56%
"CCCCCCCCn1c2c(c3cc(/C=C(\C)c4ccc(C(=O)O)o4)ccc31)CCCC2(C)C [Example 53, (E)-5-[1-methyl-2-(1,2,3,4-tetrahydro-1,1-dimethyl-9-octyl-9H-dibenzo[b,d]pyrrol-6-yl)ethenyl]-2-furancarboxylic acid]",73,63,inhibition in vivo at 10 mg/kg [2]: 68%; inhibition in vivo at 100 mg/kg [2]: 55%
"CCCCCCCCn1c2c(c3cc(Oc4ccc(C(=O)O)o4)ccc31)CC(C)(C)CC2 [Example 135, 5-[(1,2,3,4-tetrahydro-3,3-dimethyl-9-octyl-9H-dibenzo[b,d]pyrrol-6-yl)oxy]-2-furancarboxylic acid]",66,90,
"CCCCn1c2c(c3cc(Oc4ccc(C(=O)O)o4)ccc31)CCCC2 [Example 136, 5-[(1,2,3,4-tetrahydro-9-butyl-9H-dibenzo[b,d]pyrrol-6-yl)oxy]-2-furancarboxylic acid]",12,85,
"O=C(O)c1ccc(Oc2ccc3c(c2)c2c(n3Cc3ccc(Br)cc3)CCCC2)o1 [Example 137, 5-[[1,2,3,4-tetrahydro-9-(4-bromophenyl)methyl-9H-dibenzo[b,d]pyrrol-6-yl]oxy]-2-furancarboxylic acid]",36,100,
"Cn1c2c(c3cc(Oc4ccc(C(=O)O)o4)ccc31)CCCC2 [Example 138, 5-[(1,2,3,4-tetrahydro-9-methyl-9H-dibenzo[b,d]pyrrol-6-yl)oxy]-2-furancarboxylic acid]",39,13,
"CCCCCCCn1c2c(c3cc(Oc4ccc(C(=O)O)o4)ccc31)CCCC2 [Example 140, 5-[(1,2,3,4-tetrahydro-9-heptyl-9H-dibenzo[b,d]pyrrol-6-yl)oxy]-2-furancarboxylic acid]",55,97,
"Cc1cc(C)c(Cn2c3c(c4cc(Oc5ccc(C(=O)O)o5)ccc42)CCCC3)c(C)c1 [Example 152, 5-[[1,2,3,4-tetrahydro-9-[(2,4,6-trimethylphenyl)methyl]-9H-dibenzo[b,d]pyrrol-6-yl]oxy]-2-furancarboxylic acid]",,89,"inhibition at 10 µM ([1]; 10 μM (footnote a), read-out: % Inhib. of HSF-PLA2 (a: % Inhibition at 10 μM)): 72%"

# Further lines, with some results ahead:
inhibition at 5 µM [1] [%],SMILES,% Inhib. of cellular PLA2 at 5 μM (cellular PLA2) [%],further results
78,"CC(C)CCCC(C)CCn1c2c(c3cc(Oc4ccc(C(=O)O)o4)ccc31)CCCC2 (racemic) [Example 144, rac-5-[[1,2,3,4-tetrahydro-9-(3,7-dimethyloctyl)-9H-dibenzo[b,d]pyrrol-6-yl]oxy]-2-furancarboxylic acid]",87,inhibition in vivo at 30 mg/kg ([2]; 30 mg/Kg ip): 80%
63,"CCCCCCCCn1c2c(c3cc(Oc4ccc(C(=O)O)o4)ccc31)CCCC2c1cccc(OC)c1 (racemic) [Example 153, rac-5-[[1,2,3,4-tetrahydro-1-(3-methoxyphenyl)-9-octyl-9H-dibenzo[b,d]pyrrol-6-yl]oxy]-2-furancarboxylic acid]",74,"pIC50 ([1]; human synovial fluid PLA2, 30 min at 37° C., pH 7.3): 5.62"
66,"CCCCCCCCCCCCn1c2c(c3cc(Oc4ccc(C(=O)O)o4)ccc31)CCCC2 [Example 141, 5-[(1,2,3,4-tetrahydro-9-dodecyl-9H-dibenzo[b,d]pyrrol-6-yl)oxy]-2-furancarboxylic acid]",74,
76,"CCCCCCCc1ccc(Cn2c3c(c4cc(Oc5ccc(C(=O)O)o5)ccc42)CCCC3)cc1 [Example 143, 5-[[1,2,3,4-tetrahydro-9-(4-heptylphenyl)methyl-9H-dibenzo[b,d]pyrrol-6-yl]oxy]-2-furancarboxylic acid]",65,
65,"O=C(O)c1ccc(Oc2ccc3c(c2)c2c(n3Cc3ccccc3F)CCCC2)o1 [Example 148, 5-[[1,2,3,4-tetrahydro-9-[(2-fluorophenyl)methyl]-9H-dibenzo[b,d]pyrrol-6-yl]oxy]-2-furancarboxylic acid]",97,
72,"Cc1ccc(Cn2c3c(c4cc(Oc5ccc(C(=O)O)o5)ccc42)CCCC3)cc1 [Example 151, 5-[[1,2,3,4-tetrahydro-9-[(4-methylphenyl)methyl]-9H-dibenzo[b,d]pyrrol-6-yl]oxy]-2-furancarboxylic acid]",93,
